Data as given in PMC8290231 (Cancer Medicine, 2021).

Experiments:
[1] = test system: A549; assay: CCK-8 cell proliferation assay; type: cell-based; conditions: Homo sapiens, A549, 72 h, negative control; CCK-8, 72 h; read-out: antiproliferative IC50, A549
Experimental: (§1) The base medium for MDA‐MB‐453 cell line is DMEM medium (CORNING, USA). All other cell lines were cultured in RPMI‐1640 medium supplemented with 10% FBS, 100 U/ml of penicillin, and […] of streptomycin in 5% CO2 at 37℃. The cells in the logarithmic growth phase were used for the experiments.
(§2) Cells were seeded in 96‐well plate in complete medium (1000–6000 cells/well) and cultured for overnight. Then the cells were exposed to gradient concentrations (0.0005–10 μM) of compounds. Cell proliferation was analyzed by Cell Counting Kit 8 (CK04, Dojindo Laboratories, Japan) after co‐incubation for a further 72 h. IC50 values were calculated by fitting of concentration–response curves using GraphPad Prism 8.01 software. Each assay was repeated at least three times.
(§3) The expression and activation levels of FGFR1–4 in these cells were determined via western blot experiments (Figure S1).

[2] = test system: FGFR1 signal pathway in Ba/F3‐FGFR1‐V561M; assay: Western blot of FGFR1 signal pathway; type: cell-based; conditions: 300 nM
Experimental: (§4) Cells were treated with different concentrations of compound or DMSO for indicated time. Then, cells were lysed with 1 × SDS sample lysis buffer (recommended by CST). […] After blocking with 5% BSA in TBST solution (0.5% Tween‐20) at room temperature for 4 hrs, the membranes were incubated with the corresponding primary antibody (1:2000–1:200) at 4℃ overnight. After washing with TBST for 3–5 times, the HRP‐conjugated secondary antibodies were incubated for 2 hrs. The protein signals were detected with Amersham Imager 600 system (GE, Boston, MA, USA) using an ECL western blotting detection kit (Thermo Fisher Scientific, Waltham, MA, USA).
(§5) Cell lysates were separated by sodium dodecyl sulfate‐polyacrylamide gel electrophoresis (SDS‐PAGE) and analyzed by western blot for phosphorylated FGFR1, FGFR1, phosphorylated FRS2, FRS2, phosphorylated AKT (Ser473), AKT, phosphorylated Erk, and Erk. GAPDH was used as a control

[3] = molecular target: FGFR4 (Homo sapiens, UniProt P22455); assay: KINOMEscan binding affinity assay
Chain of FGFR4 (P22455 22-802): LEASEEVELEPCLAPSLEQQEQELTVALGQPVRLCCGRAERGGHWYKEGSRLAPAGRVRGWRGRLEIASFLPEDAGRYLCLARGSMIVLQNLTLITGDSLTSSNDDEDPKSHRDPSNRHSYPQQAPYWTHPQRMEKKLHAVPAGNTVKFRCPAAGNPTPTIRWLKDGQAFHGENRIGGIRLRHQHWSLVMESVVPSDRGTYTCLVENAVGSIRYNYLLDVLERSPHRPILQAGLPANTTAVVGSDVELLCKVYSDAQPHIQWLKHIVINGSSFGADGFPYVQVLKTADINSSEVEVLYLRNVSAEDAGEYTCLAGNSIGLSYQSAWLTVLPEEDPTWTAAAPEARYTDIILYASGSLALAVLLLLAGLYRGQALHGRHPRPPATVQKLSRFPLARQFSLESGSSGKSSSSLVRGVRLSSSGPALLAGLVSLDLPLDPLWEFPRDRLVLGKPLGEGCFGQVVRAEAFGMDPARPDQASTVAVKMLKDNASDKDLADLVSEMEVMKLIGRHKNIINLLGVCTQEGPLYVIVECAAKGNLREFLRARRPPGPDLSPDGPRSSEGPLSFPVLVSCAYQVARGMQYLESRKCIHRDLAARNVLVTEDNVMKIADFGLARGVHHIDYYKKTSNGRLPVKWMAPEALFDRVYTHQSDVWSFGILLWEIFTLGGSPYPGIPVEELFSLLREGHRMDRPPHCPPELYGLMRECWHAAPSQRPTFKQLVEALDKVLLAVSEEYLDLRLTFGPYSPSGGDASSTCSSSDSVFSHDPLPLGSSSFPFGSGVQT

[4] = Mortality and body weight in xenograft studies; type: in vivo, CB17‐SCID mice; conditions: 10 or 20 mg/kg q2d, oral gavage, xenograft mice
Source text: All animal studies were approved by the Institutional Animal Care and Use Committee. Male CB17‐SCID mice were purchased from Vital River Laboratory Animal Technology Inc. (Beijing, China). The right flanks of SCID mice were subcutaneously injected with 2 x 10^6 Ba/F3‐FGFR1, Ba/F3‐FGFR1‐V561F, or Ba/F3‐FGFR1‐V561M cells, respectively. When the average tumor volume reached 100–200 mm^3, mice bearing tumor were randomly divided into groups and treated with compounds or vehicle. All the compounds were suspended in 0.5% CMC‐Na aqueous solution. […] The body weight and tumor volume of animals were measured once every 2 days. Tumor volumes were calculated as L×W×W/2, where L and W are the length and width of the tumor, respectively. At the experiment terminal, tumor tissues were dissected, paraffin embedded, and sectioned for hematoxylin and eosin (H&E), immunohistochemistry (IHC), and TUNEL analysis.

[5] = test system: FGFR1‐V561F; assay: Cellular thermal shift assay (CETSA) in Ba/F3‐FGFR1‐V561F cells; type: binding; conditions: 100 nM, 38.0 to 57.8℃
Experimental: Pairs consisting of one experimental aliquot and one DMSO aliquot were heated from 38.0 to 57.8℃ for 3 min. Then, the samples were exposed to liquid nitrogen for 10 min, and then placed in a water bath at 37℃ for 10 min. After three freeze–thaw cycles, cell lysates were centrifuged at 12000 rpm at 4℃ for 10 min, and then boiled for 15 min. The soluble supernatant was used for WB analysis.
Drug‐treated cells were heated at gradient temperature from 38℃ to 57.8℃ for 3 min and then lysed, centrifuged to separate the soluble fractions from precipitates. The soluble fractions were analyzed by immunoblotting. Relative band intensities were plotted as a function of temperature followed a sigmoidal trend.

[6] = test system: A204; assay: CCK-8 cell proliferation assay; type: cell-based; conditions: Homo sapiens, A204; FGFR1 amplification; CCK-8, 72 h; read-out: antiproliferative IC50, A204
Experimental: as §1, §2, §3

[7] = molecular target: T1, FGFR2‐N550K (Homo sapiens, UniProt P21802, N549K); assay: KINOMEscan binding affinity assay
T1 construct: purchased KINOMEscan™ (commercial assay)
T1 sequence (P21802 22-822 isoform P21802-3 N550K limits assumed): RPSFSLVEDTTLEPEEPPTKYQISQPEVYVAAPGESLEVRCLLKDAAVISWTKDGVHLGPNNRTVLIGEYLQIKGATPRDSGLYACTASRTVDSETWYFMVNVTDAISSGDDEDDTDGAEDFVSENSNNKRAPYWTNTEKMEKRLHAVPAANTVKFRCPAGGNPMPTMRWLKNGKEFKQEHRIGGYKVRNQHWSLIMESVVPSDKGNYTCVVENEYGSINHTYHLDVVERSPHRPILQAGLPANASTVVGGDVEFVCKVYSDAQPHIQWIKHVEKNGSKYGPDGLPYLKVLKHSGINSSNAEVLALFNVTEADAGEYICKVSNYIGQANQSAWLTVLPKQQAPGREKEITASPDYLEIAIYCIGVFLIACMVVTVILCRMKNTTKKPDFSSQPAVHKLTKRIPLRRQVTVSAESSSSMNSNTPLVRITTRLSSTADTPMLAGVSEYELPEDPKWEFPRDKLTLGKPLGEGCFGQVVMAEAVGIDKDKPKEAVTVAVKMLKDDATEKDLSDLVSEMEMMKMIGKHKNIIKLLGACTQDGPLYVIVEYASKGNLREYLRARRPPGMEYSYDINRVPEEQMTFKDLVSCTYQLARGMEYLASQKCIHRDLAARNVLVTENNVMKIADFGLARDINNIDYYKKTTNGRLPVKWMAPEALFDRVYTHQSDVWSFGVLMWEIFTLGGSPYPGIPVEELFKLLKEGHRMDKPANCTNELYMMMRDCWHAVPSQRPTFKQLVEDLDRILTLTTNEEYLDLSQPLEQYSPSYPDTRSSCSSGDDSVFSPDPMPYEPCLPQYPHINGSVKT

[8] = molecular target: T2, FGFR1 (Homo sapiens, UniProt P11362); assay: FRET-based Z′-Lyte kinase assay; type: biochemical
T2 construct: purchased Invitrogen (Waltham, MA, USA)
T2 sequence (P11362 22-822): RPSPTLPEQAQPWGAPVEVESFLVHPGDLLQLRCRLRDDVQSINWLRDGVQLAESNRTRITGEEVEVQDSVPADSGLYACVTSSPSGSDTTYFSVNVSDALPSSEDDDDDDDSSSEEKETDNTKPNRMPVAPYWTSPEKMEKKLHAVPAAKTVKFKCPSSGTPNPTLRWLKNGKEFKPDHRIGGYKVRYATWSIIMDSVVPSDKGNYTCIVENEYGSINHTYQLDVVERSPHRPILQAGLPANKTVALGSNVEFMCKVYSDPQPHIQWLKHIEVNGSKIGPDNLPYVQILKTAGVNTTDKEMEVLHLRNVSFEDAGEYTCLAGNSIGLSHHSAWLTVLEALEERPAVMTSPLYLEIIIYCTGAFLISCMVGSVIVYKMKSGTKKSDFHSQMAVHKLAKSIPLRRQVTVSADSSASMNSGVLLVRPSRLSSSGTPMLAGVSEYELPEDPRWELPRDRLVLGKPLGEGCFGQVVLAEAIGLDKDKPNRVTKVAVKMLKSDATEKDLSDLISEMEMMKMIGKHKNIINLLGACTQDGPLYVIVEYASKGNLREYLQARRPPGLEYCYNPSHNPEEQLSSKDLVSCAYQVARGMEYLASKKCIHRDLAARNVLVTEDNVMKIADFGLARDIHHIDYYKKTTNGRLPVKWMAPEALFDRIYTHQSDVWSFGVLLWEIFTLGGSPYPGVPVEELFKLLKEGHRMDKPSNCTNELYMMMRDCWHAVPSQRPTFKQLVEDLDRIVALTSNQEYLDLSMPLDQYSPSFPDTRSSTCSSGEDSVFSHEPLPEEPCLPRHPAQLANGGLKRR
Experimental: FGFR1 and the Z′‐Lyte kinase assay kit were purchased from Invitrogen (Waltham, MA, USA) and the assays were performed according to the manufacturer's instructions as described previously.[27]

[9] = molecular target: T3, FGFR3‐K650E (Homo sapiens, UniProt P22607, K650E); assay: KINOMEscan binding affinity assay
T3 construct: purchased KINOMEscan™ (commercial assay)
T3 sequence (P22607 23-806 K650E): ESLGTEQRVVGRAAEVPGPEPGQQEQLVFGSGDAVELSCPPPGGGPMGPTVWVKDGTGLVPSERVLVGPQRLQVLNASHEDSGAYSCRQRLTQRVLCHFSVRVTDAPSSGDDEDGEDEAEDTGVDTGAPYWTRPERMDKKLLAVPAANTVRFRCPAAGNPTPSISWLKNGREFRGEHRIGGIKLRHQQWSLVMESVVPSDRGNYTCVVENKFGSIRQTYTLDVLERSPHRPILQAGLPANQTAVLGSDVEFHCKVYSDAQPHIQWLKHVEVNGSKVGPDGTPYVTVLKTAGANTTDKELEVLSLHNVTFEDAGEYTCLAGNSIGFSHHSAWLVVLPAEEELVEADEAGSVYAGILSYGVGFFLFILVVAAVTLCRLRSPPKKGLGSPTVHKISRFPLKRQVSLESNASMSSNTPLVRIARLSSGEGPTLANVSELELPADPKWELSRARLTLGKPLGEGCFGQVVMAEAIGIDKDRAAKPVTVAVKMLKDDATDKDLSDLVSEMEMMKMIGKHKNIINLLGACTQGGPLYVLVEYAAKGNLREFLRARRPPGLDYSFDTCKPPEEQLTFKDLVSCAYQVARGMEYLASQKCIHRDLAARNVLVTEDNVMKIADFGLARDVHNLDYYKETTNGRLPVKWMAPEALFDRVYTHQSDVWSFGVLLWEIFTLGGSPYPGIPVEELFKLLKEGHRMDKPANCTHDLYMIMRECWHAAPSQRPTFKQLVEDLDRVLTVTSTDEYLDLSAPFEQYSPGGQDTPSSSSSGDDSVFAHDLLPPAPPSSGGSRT

[10] = molecular target: T4, FGFR2 (Homo sapiens, UniProt P21802); assay: KINOMEscan binding affinity assay
T4 sequence (P21802 22-821): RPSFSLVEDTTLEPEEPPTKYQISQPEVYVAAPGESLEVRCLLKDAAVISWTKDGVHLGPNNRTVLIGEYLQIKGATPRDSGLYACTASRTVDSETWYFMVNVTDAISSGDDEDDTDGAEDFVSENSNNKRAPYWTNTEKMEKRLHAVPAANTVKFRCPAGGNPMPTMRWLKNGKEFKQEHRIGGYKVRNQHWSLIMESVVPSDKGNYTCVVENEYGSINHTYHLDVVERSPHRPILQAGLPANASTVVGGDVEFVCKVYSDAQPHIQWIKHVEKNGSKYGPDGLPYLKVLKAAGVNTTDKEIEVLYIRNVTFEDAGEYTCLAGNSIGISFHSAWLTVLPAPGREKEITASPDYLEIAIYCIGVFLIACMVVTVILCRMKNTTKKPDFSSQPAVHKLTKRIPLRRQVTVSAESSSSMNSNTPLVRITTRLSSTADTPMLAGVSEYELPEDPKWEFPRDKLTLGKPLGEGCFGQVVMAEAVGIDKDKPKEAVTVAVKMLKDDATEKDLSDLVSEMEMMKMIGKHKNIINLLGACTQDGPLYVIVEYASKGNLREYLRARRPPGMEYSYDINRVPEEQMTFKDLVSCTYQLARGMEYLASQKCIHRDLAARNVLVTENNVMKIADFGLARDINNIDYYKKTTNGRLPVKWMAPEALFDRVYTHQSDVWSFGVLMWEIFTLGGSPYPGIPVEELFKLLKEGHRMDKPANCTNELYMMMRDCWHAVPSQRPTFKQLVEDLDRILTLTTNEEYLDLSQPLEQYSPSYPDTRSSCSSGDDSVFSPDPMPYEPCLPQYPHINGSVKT

[11] = test system: FGFR1–FGFR3 cell lines; assay: CCK-8 proliferation, cancer cells harboring FGFR aberrations (summary range); type: cell-based; conditions: range over cell lines of Table 2; read-out: antiproliferative IC50 values, FGFR1–FGFR3 cell lines
Experimental: as §2, §3

[12] = test system: FGFR1 signal pathway in A204; assay: Western blot of FGFR1 signal pathway; type: cell-based
Experimental: as §4, §5

[13] = test system: FGFR1 signal pathway in Ba/F3‐FGFR1; assay: Western blot of FGFR1 signal pathway; type: cell-based; conditions: Ba/F3‐FGFR1, 4 h, 3.7 nM to 300 nM
Experimental: as §4, §5

[14] = test system: FGFR1 signal pathway in H1581; assay: Western blot of FGFR1 signal pathway; type: cell-based
Experimental: as §4, §5

[15] = test system: FGFR1 signal pathway in A549; assay: Western blot of FGFR1 signal pathway; type: cell-based
Experimental: as §4, §5

[16] = test system: FGFR1 in all Ba/F3 stable cells; assay: Western blot of total FGFR1 protein; type: cell-based; conditions: 4 h
Experimental: as §4
However, its effects on FGFR1 downstream signal pathway in A549 cells were very weak as a negative control.

[17] = molecular target: T5, FGFR3‐V555 M (Homo sapiens, UniProt P22607, V555M); assay: KINOMEscan binding affinity assay
T5 construct: purchased KINOMEscan™ (commercial assay)
T5 sequence (P22607 23-806 V555M): as the sequence (P22607 23-806 K650E) above, with V533M, E628K counted along it

[18] = molecular target: T4, FGFR2; assay: FRET-based Z′-Lyte kinase assay; type: biochemical

Question: What does the source list for `CCN1CCN(c2ccc(Nc3cc(N(C)C(=O)Nc4c(Cl)c(OC)cc(OC)c4Cl)ncn3)cc2)CC1` [BGJ398]?
Answer: IC50 [1]: 8730 ± 1930 nM; activation of FGFR1 and its signal pathway [2]: no effects

Question: With `Cc1ccc(C(=O)Nc2ccc(CN3CCN(C)CC3)c(C(F)(F)F)c2)cc1C#Cc1cnc2[nH]ncc2c1` [GZD824] as the compound, how does the Kd [3] read?
Answer: The Kd was 19 ± 1.4 nM.

Question: What about the “mortality and body weight during experiment” value [4] of the same compound?
Answer: The value was “no mortality or significant loss of body weight”.

Question: And the “thermal stability of FGFR1‐V561F protein (CETSA)” value [5]?
Answer: The value was “significantly enhanced”.

Question: What about the IC50 [6] of the same compound?
Answer: The IC50 was 24.4 ± 6.2 nM.

Question: And the Kd [7]?
Answer: The Kd was 17 ± 5.7 nM.

Question: What about the IC50 [8] of the same compound?
Answer: Its IC50 is 4.14 ± 0.96 nM.

Question: And the EC50 ([8]; Figure 1B curve fit)?
Answer: Its EC50 is 4.82 nM.

Question: What about the Kd [9] of the same compound?
Answer: Its Kd is 11 nM.

Question: And the Kd [10]?
Answer: The Kd was 15.5 ± 3.5 nM.

Question: And the IC50 [11]?
Answer: Its IC50 is 4 to 91 nM.

Question: And the “dose with obvious inhibition of pFRS2 and pERK” value ([12]; A204)?
Answer: Its value is ≥ 3.7 nM.

Question: What about the “total level of FGFR1 protein expression” value ([12]; A204) of the same compound?
Answer: Its value is “no obvious effect”.

Question: And the “effect on pAKT” value ([12]; A204, even at 300 nM)?
Answer: The value was “no effect”.

Question: What about the “FGFR1 phosphorylation, downstream FRS2 and ERK1/2” value [13] of the same compound?
Answer: Its value is “dose‐dependent inhibition”.

Question: What about the “dose with obvious inhibition of pFRS2 and pERK” value ([14]; H1581) of the same compound?
Answer: The value was ≥ 3.7 nM.

Question: What about the “total level of FGFR1 protein expression” value ([14]; H1581) of the same compound?
Answer: The value was “no obvious effect”.

Question: What about the “FGFR1 phosphorylation, downstream FRS2 and ERK1/2” value ([14]; H1581, 4 h, 3.7 nM to 300 nM) of the same compound?
Answer: The value was “dose‐dependent inhibition”.

Question: What about the “effect on pAKT” value ([14]; H1581, even at 300 nM) of the same compound?
Answer: The value was “no effect”.

Question: And the “total level of FGFR1 protein expression” value ([15]; A549)?
Answer: The value was “no obvious effect”.

Question: What about the “effects on FGFR1 downstream signal pathway” value ([15]; A549, negative control) of the same compound?
Answer: The value was “very weak”.

Question: What about the “dose showing obvious degradation of FGFR1” value [16] of the same compound?
Answer: Its value is ≥ 33.3 nM.

Question: What about the Kd [17] of the same compound?
Answer: The Kd was 19.5 ± 4.9 nM.

Question: And the IC50 [18]?
Answer: The IC50 was 2.77 ± 0.082 nM.

Question: And the EC50 ([18]; Figure 1B curve fit)?
Answer: Its EC50 is 2.72 nM.
